{"source": "paper PMC10150926", "about": "“PHT427 as an effective New Delhi metallo-β-lactamase-1 (NDM-1) inhibitor restored the susceptibility of meropenem against Enterobacteriaceae producing NDM-1” (Frontiers in Microbiology, 2023)", "type_in_all_cases": "binding", "key": {"[1]": {"target": "T1, New Delhi metallo-β-lactamase-1 (NDM-1) (Klebsiella pneumoniae, UniProt C7C422)", "T1 construct": "gene blaNDM-1", "assay": "SPR (also fluorescence quenching; purified enzyme inhibition with meropenem, IC50 […])"}, "[2]": {"target": "T2, New Delhi metallo-β-lactamase-1 (NDM-1) (Klebsiella pneumoniae, UniProt C7C422, Q123A)", "T2 construct": "gene blaNDM-1", "assay": "SPR"}, "[3]": {"target": "T3, New Delhi metallo-β-lactamase-1 (NDM-1) (Klebsiella pneumoniae, UniProt C7C422, N220A)", "T3 construct": "gene blaNDM-1", "assay": "SPR"}}, "data": [{"smiles": "CCCCCCCCCCCCc1ccc(S(=O)(=O)Nc2nncs2)cc1", "note": "[PHT427, 4-dodecyl-N-1,3,4-thiadiazol-2-yl-benzenesulfonamide]", "values": [{"measurement": "Kd", "setting": "[1]", "result": 62.8, "unit": "µM"}, {"measurement": "Kd", "setting": "[2]", "result": 124, "unit": "µM"}, {"measurement": "Kd", "setting": "[3]", "result": 896, "unit": "µM"}]}]}
